Results on 31 compounds are retold here after patent US20240368139A1, “NOVEL MODULATORS OF EHMT1 AND EHMT2 AND THERAPEUTIC USE THEREOF” (Tango Therapeutics, Inc., priority 2021, published 2024).

Structures are written as SMILES.

Experiment [1] concerns H3K9me2 in HCT116 cells. The experiment can be described thus: HCT116 H3K9me2 in-cell western assay. Type of experiment: cell-based. The settings on record: Homo sapiens, HCT-116, 72 h, HCT116 cells, 72 hours incubation; read-out: H3K9me2 ICW IC50. An excerpt:
HCT116 cell line was purchased from ATCC (Manassas, VA, USA). […] Penicillin-Streptomycin and heat inactivated fetal bovine serum were purchased from Hyclone (Logan, UT, USA). DPBS, Corning^R were purchased from VWR (Radnor, PA, USA). Triton′ X-100 was purchased from Sigma (St. Louis, MO, USA). Intercept blocking buffer, DRAQ5, Licor Odyssey Infrared Scanner were purchased from Licor Biosciences (Lincoln, NB, USA). Plate washer was purchased from BioTek (Winooski, VT, USA). […] 16% Paraformaldehyde was purchased from Electron Microscopy Sciences (Hatfield, PA, USA). HCT116 cells were maintained in complete growth medium (RPMI supplemented with 10% heat inactivated fetal bovine serum, 1% Penicillin-Streptomycin) and cultured at 37° C. under 5% CO2. N^2-(4-methoxy-3-(3-(pyrrolidin-1-yl)propoxy)phenyl)-N^4,6-dimethyl]pyrimidine-2,4-diamine (synthesis disclosed in International Application WO2017181177A1) was used as a control compound.
HCT116 cells (ATCC) were trypsinized, counted and seeded in assay medium (RPMI supplemented with 10% heat inactivated fetal bovine serum, 1% Penicillin-Streptomycin) at a concentration of 2,000 cells per well to a 384-well cell culture plate with compounds in 50 μl per well. Plates were incubated with at 37° C. under 5% CO2 for 72 hours. After the incubation, 50 μl per well of 8% paraformaldehyde in PBS was added to the plates and incubated at room temperature for 20 minutes. Plates were transferred to a BioTek (EL406) plate washer and washed 5 times with 110 μl per well of wash buffer (1×PBS containing 0.1% Triton X-100). The plates were next blocked with 50 μl of Intercept blocking buffer for 1 hour at room temperature. Blocking buffer was removed and 30 μl per well of monoclonal primary antibody of H3K9me2 (CST) diluted 1:200 in Intercept blocking buffer were added and plates were incubated overnight at 4° C. The plates were then washed 5 times with 110 μl per well of wash buffer (1×PBS containing 0.1% Triton X-100). Next 30 μl per well of secondary was added (1:400 800 CW goat anti-rabbit IgG in blocking buffer) with 1:1000 DRAQ5 in blocking buffer and incubated for 2 hours at room temperature. The plates were washed 5 times with 110 μl per well of wash buffer (1×PBS containing 0.1% Triton X-100) then with 100 μl per well of water once. Plates were allowed to dry at room temperature then imaged on a Licor Odyssey Infrared Scanner which measured integrated intensity at 700 nm and 800 nm wavelength. Both 700 and 800 channels were scanned.
The average of the ratio values (800 nm/700 nm) for each well was calculated and used to determine the percentage for each test well in the plate. Compounds were serially diluted two-fold in 0.1% DMSO for a total of 10 test concentrations beginning at 10 μM. IC50 curves were generated using duplicate wells per concentration of compound. […] IC50 values were calculated using a non-linear regression of Prism.

For experiment [2], the target named is T1, human EHMT1 982-1266 (Homo sapiens, UniProt Q9H9B1).
T1 sequence (Q9H9B1 982-1266): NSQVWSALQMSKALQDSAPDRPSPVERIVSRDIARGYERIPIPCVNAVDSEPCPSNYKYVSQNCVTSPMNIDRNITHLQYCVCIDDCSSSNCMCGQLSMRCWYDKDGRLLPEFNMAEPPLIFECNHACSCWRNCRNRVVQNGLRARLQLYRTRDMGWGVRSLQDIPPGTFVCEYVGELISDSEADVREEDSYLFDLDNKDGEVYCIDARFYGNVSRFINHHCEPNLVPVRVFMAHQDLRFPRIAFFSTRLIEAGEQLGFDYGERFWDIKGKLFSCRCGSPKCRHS
Kind of experiment: EHMT1 enzyme assay on histone peptide substrate (3H-SAM SPA). The settings on record: EHMT1 IC50, recombinant human EHMT1 982-1266, histone peptide substrate.

Experiment [3] has as its target T2, human EHMT2 913-1193 (Homo sapiens, UniProt Q96KQ7).
T2 sequence (Q96KQ7 913-1193): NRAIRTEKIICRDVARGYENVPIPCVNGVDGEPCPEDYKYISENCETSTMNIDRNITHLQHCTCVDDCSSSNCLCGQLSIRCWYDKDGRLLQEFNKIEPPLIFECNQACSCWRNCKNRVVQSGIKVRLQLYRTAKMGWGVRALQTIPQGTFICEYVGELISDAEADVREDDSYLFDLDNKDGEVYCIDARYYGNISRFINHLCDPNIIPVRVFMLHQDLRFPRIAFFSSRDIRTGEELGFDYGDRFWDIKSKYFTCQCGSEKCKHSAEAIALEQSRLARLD
Kind of experiment: EHMT2 enzyme assay on histone peptide substrate (3H-SAM SPA). As to conditions: EHMT2 IC50, recombinant human EHMT2 913-1193, histone peptide substrate.

Consider `CNc1cc(C)nc(Nc2cc3c(c(C4=CCNCCC4)c2F)OCO3)n1` [Compound 207], for which the IC50 in experiment [1], in experiment [2] and in experiment [3] was less than 100 nM each time.
Regarding `COCCCNc1cc(C)nc(Nc2cc3c(c(C4=CCNCCC4)c2)OCC3)n1` [Compound 310], the values for the IC50 in experiment [1], in experiment [2] and in experiment [3] were 100 to 500 nM, less than 100 nM and less than 100 nM, respectively.
On to `CNc1cc(C)nc(Nc2cc3c(c(C4=CCN(C)CCC4)c2)OCCO3)c1` [Compound 146, N4,6-dimethyl-N2-[5-(1-methyl-2,3,4,7-tetrahydroazepin-5-yl)-2,3-dihydro-1,4-benzodioxin-7-yl]pyridine-2,4-diamine], for which the IC50 is 100 to 500 nM in experiment [1], 100 to 500 nM in experiment [2] and 500 to 2000 nM in experiment [3].
As for `COCCNc1cc(C)nc(Nc2cc3c(c(C4=CCN(C)CCC4)c2)OCC3)c1` [Compound 297], the IC50 was in the range of 500 to 2000 nM in experiment [1], 100 to 500 nM in experiment [2] and 500 to 2000 nM in experiment [3].
As to `CCc1c(C)nc(Nc2cc3c(c(C4=CCN(C)CCC4)c2F)OCC3)nc1NC` [Compound 210], the IC50 in experiment [1] was less than 100 nM; in experiment [2] it was less than 100 nM; in experiment [3] it was 100 to 500 nM.
For `CNc1cc(C)nc(Nc2cc3c(c(C4=CCN(C)CCC4)c2F)OCCC3(F)F)n1` [Compound 173], the IC50 in experiment [1] was less than 100 nM; in experiment [2] it was less than 100 nM; in experiment [3] it was 100 to 500 nM.
As to `CNc1cc(C)nc(Nc2cc3c(c(C4=C[C@H]5CNC[C@H]5C4)c2)OCCC3)n1` [Compound 344], the IC50 lay within 100 to 500 nM in experiment [1], 100 to 500 nM in experiment [2] and 500 to 2000 nM in experiment [3].
`Cc1cc(NC2CCCC2)nc(Nc2cc3c(c(OCCCN4CCCC4)c2)OCC3)n1` [Compound 116, N4-cyclopentyl-6-methyl-N2-[7-(3-pyrrolidin-1-ylpropoxy)-2,3-dihydrobenzofuran-5-yl]pyrimidine-2,4-diamine]: the IC50 in experiment [1] is greater than 2000 nM; in experiment [2] it was 500 to 2000 nM; in experiment [3] it was greater than 2000 nM.
`CNc1cc(C)nc(Nc2cc3c(c(C4C[C@H]5CNC[C@H]5C4)c2F)OCC3)n1` (stereo partly shown) [Compound 437, N2-[7-(1,2,3,3a,4,5,6,6a-octahydrocyclopenta[c]pyrrol-5-yl)-6-fluoro-2,3-dihydrobenzofuran-5-yl]-N4,6-dimethyl-pyrimidine-2,4-diamine]: the IC50 in experiment [1] fell in the range of 100 to 500 nM; in experiment [2], 500 to 2000 nM; in experiment [3] it was 500 to 2000 nM.
Take `[2H]Cc1nc(Nc2cc3c(c(C4=CCNCCC4)c2)OCC3)nc(NC([2H])([2H])[2H])c1F` [Compound 232]: the IC50 in experiment [1], in experiment [2] and in experiment [3] was 100 to 500 nM throughout.
On to `CNc1cc(Nc2cc3c(c(C4=CCNCCC4)c2F)OCCC3)nc(C)c1F` [Compound 243], for which the IC50 in experiment [1], in experiment [2] and in experiment [3] was less than 100 nM throughout.
For the compound `[2H]Cc1cc(NCC([2H])([2H])[2H])nc(Nc2cc3c(c(C4=CCNCCC4)c2F)OCC3)n1` [Compound 262], the IC50 in experiment [1], in experiment [2] and in experiment [3] was less than 100 nM throughout.
Turning to `CNc1cc(C)nc(Nc2cc3c(c(C4CCCNCC4)c2)OCC3)n1` (stereo not shown) [Compound 106, N2-[7-(azepan-4-yl)-2,3-dihydrobenzofuran-5-yl]-N4,6-dimethyl-pyrimidine-2,4-diamine], the values for the IC50 in experiment [1], in experiment [2] and in experiment [3] were 100 to 500 nM, 500 to 2000 nM and 500 to 2000 nM, respectively.
On to `CNc1cc(C)nc(Nc2cc3c(c(C4=CCNCC(O)C4)c2C)OCCC3)n1` (single isomer, unassigned) [Compound 355], for which the IC50 in experiment [1], in experiment [2] and in experiment [3] was less than 100 nM in each case.
For `CNc1cc(Nc2cc3c(c(C4=CCN(C)CCC4)c2F)OCCC3)nc(C)c1F` [Compound 236], the values for the IC50 in experiment [1], in experiment [2] and in experiment [3] were 100 to 500 nM, less than 100 nM and 100 to 500 nM, respectively.
For `[2H]C([2H])([2H])CNc1nc(Nc2cc3c(c(C4=CCNCCC4)c2F)OCC3)nc(C)c1F` [Compound 258], the IC50 in experiment [1], in experiment [2] and in experiment [3] was 100 to 500 nM each time.
Regarding `[2H]Cc1nc(Nc2cc3c(c(C4=CCN(C)CCC4)c2)OCC3)nc(NC([2H])([2H])[2H])c1F` [Compound 220], the IC50 is 100 to 500 nM in experiment [1], 100 to 500 nM in experiment [2] and 500 to 2000 nM in experiment [3].
Consider `CNc1nc(Nc2cc3c(c(C4=CCNCCC4)c2)OCC3)nc(C)c1F` [Compound 277], for which the IC50 in experiment [1], in experiment [2] and in experiment [3] was 100 to 500 nM throughout.
On to `CNc1cc(C)nc(Nc2cc3c(c(C4=C[C@H]5CNC[C@H]5C4)c2)OCO3)n1` [Compound 347], for which the IC50 lay within 100 to 500 nM in experiment [1], 100 to 500 nM in experiment [2] and 500 to 2000 nM in experiment [3].
For `[2H]C([2H])([2H])CNc1cc(C)nc(Nc2cc3c(c(C4=CCN(C)CCC4)c2F)OCC3)n1` [Compound 217], the IC50 in experiment [1], in experiment [2] and in experiment [3] was less than 100 nM in each case.
In the case of `CNc1nc(Nc2cc(OCCCN3CCCC3)c3occc3c2)nc(C)c1F` [Compound 109, 5-fluoro-N4,6-dimethyl-N2-[7-(3-pyrrolidin-1-ylpropoxy)benzofuran-5-yl]pyrimidine-2,4-diamine], the IC50 in experiment [1], in experiment [2] and in experiment [3] was greater than 2000 nM in each case.
Take `CNc1cc(C)nc(Nc2cc3c(c(C4=CCNCCC4)c2F)OCCC3C)n1` (single isomer, unassigned) [Compound 414]: the IC50 in experiment [1] is less than 100 nM.
As to `[2H]Cc1cc(NC([2H])([2H])[2H])nc(Nc2cc3c(c(C4=CCNCCC4)c2F)OCC3)n1` [Compound 249], in experiment [1], the IC50 is less than 100 nM.
Still for that read-out and setting: the result for `Cc1cc(N(C)C)nc(Nc2cc3c(c(C4=CCNCCC4)c2)OCC3)n1` [Compound 138] reads 100 to 500 nM; that for `CNc1cc(C)nc(Nc2cc3c(c(C4=CCNCCC4)c2F)OCC[C@@H]3C)n1` (single isomer, unassigned) [Compound 415], less than 100 nM.
On the same count and under the same terms, the result for `CNc1cc(C)nc(Nc2cc3c(c(C4=CCNCC(O)C4)c2Cl)OCCC3)n1` (single isomer, unassigned) [Compound 407] reads less than 100 nM; that for `Cc1cc(N(C)C)nc(Nc2cc3c(c(C4=CCN(C)CCC4)c2)OCC3)n1` [Compound 139], 500 to 2000 nM; that for `CNc1cc(C)nc(Nc2cc3c(c(C4=CCNC(C)CC4)c2F)OCC3)n1` (stereo not shown) [Compound 202], less than 100 nM.
Still for that read-out and setting: then `CNc1cc(C)nc(Nc2cc3c(c(C4=CCN(C)CCC4)c2F)OCCC3C)n1` (single isomer, unassigned) [Compound 406], with 100 to 500 nM.
Take `[2H]C([2H])([2H])Nc1cc(C)nc(Nc2cc3c(c(C4=CCNCCC4)c2F)OCC3)n1` [Compound 253]: the IC50 in experiment [1] was less than 100 nM.
Same read-out and setting: the result for `CNc1cc(C)nc(Nc2cc3c(c(C4=CCN(C)CC(O)C4)c2Cl)OCCC3)n1` (single isomer, unassigned) [Compound 402] reads less than 100 nM.
